Data from EP0531640B1, “Antibiotic LL-E19020 Gamma” (F. HOFFMANN-LA ROCHE AG, priority 1991, dated 1993).

Assay: Growth of chickens and efficiency of feed utilization
Assay type: in vivo, Peterson X Arbor Acres chicks
Conditions: chicks, 200 ppm in the diet (positive control), day 1 to day 14
Procedure: In this test, one day old Peterson X Arbor Acres chicks are sorted into equal weight groups of 5 males and 5 females per cage. Cages are randomized to treatment groups with six replicates per treatment. The test compound is evaluated 25 ppm in the diet against chicks receiving a non-medicated diet and a diet containing 200 ppm of penicillin as a positive control.
The cages are weighed at day 1 and at day 14 and feed consumption is measured on weigh days. Feed and water are offered ad libitum and lighting and supplemental heat are provided continuously.
The poultry diet employed in the test is as follows:
The vitamin-amino acid premix in the above feed composition is prepared from the following formulation. The expressions of quantity relate to units per kilogram of the finished feed composition.

With Penicillin [reference compound] the “Weight Gain” value was 344 g, the “Weight Gain, % improvement over control” value was 7.2% and the feed conversion was 1.317. For the same substance, the “feed conversion, % improvement over control” value was 0.4%.
